Values of other authors as cited in patent US6901278B1, “Methods for reducing the risk of breast cancer in and improving the health of women” (priority 2002, dated 2005).

Details: following first-pass hepatic metabolism

- bioavailable fraction of oral estradiol: 5%
SMILES: C[C@]12CC[C@@H]3c4ccc(O)cc4CC[C@H]3[C@@H]1CC[C@@H]2O [Estradiol, 17β-estradiol]
